Results as given in patent publication US6358885B1, “Substituted phenylheterocyclic herbicides” (Mississippi State University, priority 1992, dated 2002).

Tests used:
blackgrass [1] = experiment: Test B preemergence/postemergence greenhouse plant response rating 0 to 10; assay type: in vivo, Alopecurus myosuroides; details: 0 to 10 scale
In short: (§1)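 Planted seeds are treated preemergence with compound dissolved in a non-phytotoxic solvent, while postemergence applications go onto plants of two to eighteen cm. Plants stay in the greenhouse twelve to sixteen days and are then rated visually relative to controls.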

giant foxtail = experiment: Test C preemergence/postemergence greenhouse plant response rating 0 to 100; assay type: in vivo, Setaria faberii; details: POSTEMERGENCE
Text: (§2) The compounds evaluated in this test were formulated in a non-phytoxic solvent and applied to the soil surface before plant seedlings emerged (preemergence application), to water that covered the soil surface (flood application), and to plants that were in the one-to-four leaf stage (postemergence application). A sandy loam soil was used for the preemergence and postemergence tests, while a silt loam soil was used in the flood test. Water depth was approximately 2.5 cm for the flood test and was maintained at this level for the duration of the test. Plant species in the preemergence and postemergence tests consisted of barley (Hordeum vulgare), bedstraw (Galium aparine), blackgrass (Alopecurus myosuroides), chickweed (Stellaria media), corn (Zea mays), cotton (Gossypium hirsutum), crabgrass (Digitaria sanguinalis), downy brome (Bromus tectorum), giant foxtail (Setaria faberii), lambsquarters (Chenopodium album), morningglory (Ipomoea hederacea), pigweed ([…]), rape (Brassica napus), ryegrass (Lolium multiflorum), sorghum (Sorghum bicolor), soybean (Glycine max), speedwell (Veronica persica), sugar beet (Beta vulgaris), velvetleaf (Abutilon theophrasti), wheat (Triticum aestivum), wild buckwheat (Polygonum convolvulus), and wild oat (Avena fatua). All plant species were planted one day before application of the compound for the preemergence portion-of this test. Plantings of these species were adjusted to produce plants of appropriate size for the post-emergence portion of the test. […] All plant species were grown using normal greenhouse practices. Visual evaluations of injury expressed on treated plants, when compared to untreated controls, were recorded approximately fourteen to twenty one days after application of the test compound. […] A dash (-) response means no test result.

cotton = experiment: Test B preemergence/postemergence greenhouse plant response rating 0 to 10; assay type: in vivo, Gossypium hirsutum; details: 0 to 10 scale
In short: as §1

cheatgrass = experiment: as above; assay type: in vivo, Bromus secalinus; details: 0 to 10 scale
In short: as §1

bedstraw = experiment: as above; assay type: in vivo, Galium aparine; details: 0 to 10 scale
In short: as §1

cocklebur = experiment: as above; assay type: in vivo, Xanthium pensylvanicum; details: 0 to 10 scale
In short: as §1

wheat = experiment: Test C preemergence/postemergence greenhouse plant response rating 0 to 100; assay type: in vivo, Triticum aestivum; details: POSTEMERGENCE
Text: as §2

corn = experiment: as above; assay type: in vivo, Zea mays; details: POSTEMERGENCE
Text: as §2

ryegrass = experiment: as above; assay type: in vivo, Lolium multiflorum; details: POSTEMERGENCE
Text: as §2

rape = experiment: as above; assay type: in vivo, Brassica napus; details: POSTEMERGENCE
Text: as §2

blackgrass [2] = experiment: as above; assay type: in vivo, Alopecurus myosuroides; details: POSTEMERGENCE
Text: as §2

sugar beet = experiment: as above; assay type: in vivo, Beta vulgaris; details: POSTEMERGENCE
Text: as §2

wild buckwheat = experiment: Test B preemergence/postemergence greenhouse plant response rating 0 to 10; assay type: in vivo, Polygonum convolvulus; details: 0 to 10 scale
In short: as §1

barley = experiment: as above; assay type: in vivo, Hordeum vulgare; details: 0 to 10 scale
In short: as §1

rice = experiment: as above; assay type: in vivo, Oryza sativa; details: 0 to 10 scale
In short: as §1

lambsquarters = experiment: Test C preemergence/postemergence greenhouse plant response rating 0 to 100; assay type: in vivo, Chenopodium album; details: POSTEMERGENCE
Text: as §2

Question: C#CCN1C(=O)COc2cc(F)c(-c3nn4c(c3Br)CCCC4)cc21 [Compound 56] was tested. Which “Plant response rating, Blackgrass” value (blackgrass [1]; POSTEMERGENCE, Rate 10 g/ha) did it give?
Answer: Its value is 6.

Question: And the “Plant response rating, Blackgrass” value (blackgrass [1]; POSTEMERGENCE, Rate 50 g/ha)?
Answer: Its value is 7.

Question: What about the “Plant response rating, Blackgrass” value (blackgrass [1]; PREEMERGENCE, Rate 10 g/ha) of the same molecule?
Answer: The value was 3.

Question: And the “Plant response rating, Blackgrass” value (blackgrass [1]; PREEMERGENCE, Rate 50 g/ha)?
Answer: The value was 6.

Question: And the “Plant response rating, Giant foxtail” value (giant foxtail; 62 g/ha, 0 to 100 scale)?
Answer: Its value is 40.

Question: What about the “Plant response rating (0 to 100), Giant foxtail” value (giant foxtail; Rate 1 g/ha) of the same molecule?
Answer: Its value is 10.

Question: And the “Plant response rating (0 to 100), Giant foxtail” value (giant foxtail; Rate 4 g/ha)?
Answer: The value was 10.

Question: And the “Plant response rating (0 to 100), Giant foxtail” value (giant foxtail; Rate 16 g/ha)?
Answer: The value was 30.

Question: And the “Plant response rating, Cotton” value (cotton; POSTEMERGENCE, Rate 10 g/ha)?
Answer: Its value is 10.

Question: And the “Plant response rating, Cotton” value (cotton; POSTEMERGENCE, Rate 50 g/ha)?
Answer: Its value is 10.

Question: What about the “Plant response rating, Cotton” value (cotton; PREEMERGENCE, Rate 10 g/ha) of the same molecule?
Answer: The value was 0.

Question: And the “Plant response rating, Cotton” value (cotton; PREEMERGENCE, Rate 50 g/ha)?
Answer: Its value is 0.

Question: What about the “Plant response rating, Cheatgrass” value (cheatgrass; POSTEMERGENCE, Rate 10 g/ha) of the same molecule?
Answer: Its value is 5.

Question: And the “Plant response rating, Cheatgrass” value (cheatgrass; POSTEMERGENCE, Rate 50 g/ha)?
Answer: The value was 6.

Question: And the “Plant response rating, Cheatgrass” value (cheatgrass; PREEMERGENCE, Rate 10 g/ha)?
Answer: Its value is 5.

Question: And the “Plant response rating, Cheatgrass” value (cheatgrass; PREEMERGENCE, Rate 50 g/ha)?
Answer: The value was 5.

Question: What about the “Plant response rating, Bedstraw” value (bedstraw; POSTEMERGENCE, Rate 10 g/ha) of the same molecule?
Answer: The value was 8.

Question: What about the “Plant response rating, Bedstraw” value (bedstraw; POSTEMERGENCE, Rate 50 g/ha) of the same molecule?
Answer: Its value is 10.

Question: And the “Plant response rating, Bedstraw” value (bedstraw; PREEMERGENCE, Rate 10 g/ha)?
Answer: Its value is 4.

Question: What about the “Plant response rating, Bedstraw” value (bedstraw; PREEMERGENCE, Rate 50 g/ha) of the same molecule?
Answer: The value was 9.

Question: What about the “Plant response rating, Cocklebur” value (cocklebur; POSTEMERGENCE, Rate 10 g/ha) of the same molecule?
Answer: The value was 10.

Question: What about the “Plant response rating, Cocklebur” value (cocklebur; POSTEMERGENCE, Rate 50 g/ha) of the same molecule?
Answer: The value was 10.

Question: What about the “Plant response rating, Cocklebur” value (cocklebur; PREEMERGENCE, Rate 10 g/ha) of the same molecule?
Answer: Its value is 2.

Question: What about the “Plant response rating, Cocklebur” value (cocklebur; PREEMERGENCE, Rate 50 g/ha) of the same molecule?
Answer: Its value is 2.

Question: And the “Plant response rating, Wheat” value (wheat; 62 g/ha, 0 to 100 scale)?
Answer: The value was 60.

Question: And the “Plant response rating (0 to 100), Wheat” value (wheat; Rate 1 g/ha)?
Answer: Its value is 30.

Question: And the “Plant response rating (0 to 100), Wheat” value (wheat; Rate 4 g/ha)?
Answer: Its value is 50.

Question: What about the “Plant response rating (0 to 100), Wheat” value (wheat; Rate 16 g/ha) of the same molecule?
Answer: The value was 60.

Question: And the “Plant response rating, Corn” value (corn; 62 g/ha, 0 to 100 scale)?
Answer: The value was 50.

Question: And the “Plant response rating (0 to 100), Corn” value (corn; Rate 1 g/ha)?
Answer: The value was 20.

Question: What about the “Plant response rating (0 to 100), Corn” value (corn; Rate 4 g/ha) of the same molecule?
Answer: Its value is 30.

Question: What about the “Plant response rating (0 to 100), Corn” value (corn; Rate 16 g/ha) of the same molecule?
Answer: The value was 40.

Question: And the “Plant response rating Ryegrass” value (ryegrass; 62 g/ha, 0 to 100 scale)?
Answer: The value was 50.

Question: And the “Plant response rating (0 to 100), Ryegrass” value (ryegrass; Rate 1 g/ha)?
Answer: Its value is 20.

Question: And the “Plant response rating (0 to 100), Ryegrass” value (ryegrass; Rate 4 g/ha)?
Answer: The value was 40.

Question: What about the “Plant response rating (0 to 100), Ryegrass” value (ryegrass; Rate 16 g/ha) of the same molecule?
Answer: The value was 40.

Question: And the “Plant response rating, Rape” value (rape; 62 g/ha, 0 to 100 scale)?
Answer: Its value is 100.

Question: And the “Plant response rating (0 to 100), Rape” value (rape; Rate 1 g/ha)?
Answer: Its value is 100.

Question: And the “Plant response rating (0 to 100), Rape” value (rape; Rate 4 g/ha)?
Answer: Its value is 100.

Question: And the “Plant response rating (0 to 100), Rape” value (rape; Rate 16 g/ha)?
Answer: Its value is 100.

Question: What about the “Plant response rating, Blackgrass” value (blackgrass [2]; 62 g/ha, 0 to 100 scale) of the same molecule?
Answer: Its value is 80.

Question: And the “Plant response rating (0 to 100), Blackgrass” value (blackgrass [2]; Rate 1 g/ha)?
Answer: Its value is 30.

Question: And the “Plant response rating (0 to 100), Blackgrass” value (blackgrass [2]; Rate 4 g/ha)?
Answer: The value was 40.

Question: What about the “Plant response rating (0 to 100), Blackgrass” value (blackgrass [2]; Rate 16 g/ha) of the same molecule?
Answer: The value was 65.

Question: And the “Plant response rating, Sugar beet” value (sugar beet; 62 g/ha, 0 to 100 scale)?
Answer: Its value is 100.

Question: And the “Plant response rating (0 to 100), Sugar beet” value (sugar beet; Rate 1 g/ha)?
Answer: The value was 100.

Question: What about the “Plant response rating (0 to 100), Sugar beet” value (sugar beet; Rate 4 g/ha) of the same molecule?
Answer: Its value is 100.

Question: What about the “Plant response rating (0 to 100), Sugar beet” value (sugar beet; Rate 16 g/ha) of the same molecule?
Answer: The value was 100.

Question: What about the “Plant response rating, Wild buckwheat” value (wild buckwheat; POSTEMERGENCE, Rate 10 g/ha) of the same molecule?
Answer: Its value is 10.

Question: And the “Plant response rating, Wild buckwheat” value (wild buckwheat; POSTEMERGENCE, Rate 50 g/ha)?
Answer: Its value is 10.

Question: What about the “Plant response rating, Wild buckwheat” value (wild buckwheat; PREEMERGENCE, Rate 50 g/ha) of the same molecule?
Answer: Its value is 9.

Question: What about the “Plant response rating, Barley” value (barley; POSTEMERGENCE, Rate 10 g/ha) of the same molecule?
Answer: The value was 6.

Question: And the “Plant response rating, Barley” value (barley; POSTEMERGENCE, Rate 50 g/ha)?
Answer: The value was 7.

Question: And the “Plant response rating, Barley” value (barley; PREEMERGENCE, Rate 10 g/ha)?
Answer: The value was 0.

Question: What about the “Plant response rating, Barley” value (barley; PREEMERGENCE, Rate 50 g/ha) of the same molecule?
Answer: Its value is 2.

Question: What about the “Plant response rating, Rice” value (rice; POSTEMERGENCE, Rate 10 g/ha) of the same molecule?
Answer: The value was 3.

Question: And the “Plant response rating, Rice” value (rice; POSTEMERGENCE, Rate 50 g/ha)?
Answer: The value was 4.

Question: What about the “Plant response rating, Rice” value (rice; PREEMERGENCE, Rate 50 g/ha) of the same molecule?
Answer: Its value is 0.

Question: And the “Plant response rating Lambsquarters” value (lambsquarters; 62 g/ha, 0 to 100 scale)?
Answer: Its value is 100.

Question: What about the “Plant response rating (0 to 100), Lambsquarters” value (lambsquarters; Rate 1 g/ha) of the same molecule?
Answer: The value was 85.

Question: And the “Plant response rating (0 to 100), Lambsquarters” value (lambsquarters; Rate 4 g/ha)?
Answer: The value was 100.

Question: And the “Plant response rating (0 to 100), Lambsquarters” value (lambsquarters; Rate 16 g/ha)?
Answer: Its value is 100.
